# Legend:
# Format in all cases: cell-based
# [1] = system: p-JNK; test: Western blot of p-JNK/JNK in DOX-treated H9c2 cardiomyocytes; conditions: FIG. 4; for p-JNK expression level compared with DOX model group: 1 h incubation, then DOX 24 h
# Procedure: (§1) (2) Incubate H9c2 cells with alkaloid compound I for 1 hour, then add […] DOX and incubate for 24 hours; extract the proteins, proceed with hydrolysis and collect the resulting solution, centrifuge at 12000 rpm for 15 minutes, collect the supernatant and discard the precipitate, store under −80° C. until analysis. Perform SDS-PAGE electrophoresis (Stepl voltage set at 80V for 30 minutes, followed by Step2 voltage set at 120V for 180 minutes), using 5% concentrated gel. Carry out membrane transfer using a PVDF membrane, with a current of 80 mA for 30 minutes. Then, conduct the closure and hybridization by using 5% skim milk powder for 1 hour of closure, followed by overnight incubation with primary antibody, and 1-2 hours of incubation with secondary antibody at room temperature with gentle shaking. Finally, visualize the proteins by using ECL reagent and observe the expression of Caspase-3 and p-JNK/JNK proteins using a gel imaging system.
# [2] = system: Cleaved-Caspase-3; test: Western blot of Cleaved-Caspase-3 in DOX-treated H9c2 cardiomyocytes; conditions: FIG. 3
# Procedure: as §1
# [3] = system: H9c2 cardiomyocytes; test: Toxicity of alkaloid compound I on H9c2 cardiomyocytes (MTT colorimetric method); conditions: 24 h incubation, FIG. 1
# Procedure: H9c2 cells are incubated with different concentrations (0.1 μM, 1 μM, 5 μM, 10 μM, 20 μM, 40 μM, 80 μM, 160 μM) of alkaloid compounds I for 24 h, and then the toxic effects of the alkaloid compounds on cardiomyocytes are evaluated by MTT colorimetric method.
# [4] = system: H9c2 cardiomyocytes; test: Effect on DOX-induced H9c2 cardiomyocyte toxicity (MTT colorimetric assay); conditions: 1 h pre-incubation, then 2.5 μM DOX 24 h, FIG. 2
# Procedure: (1) H9c2 cells are pre-incubated with alkaloid compound I for lh, then add 2.5 μM doxorubicin (DOX), incubate for 24 h. MTT colorimetric assay is used to determine the apoptotic activity of alkaloid compound I on DOX-induced cardiomyocytes and determine the optimal range of the dose concentration.
compound,measurement,setting,value
"COc1cccc2c1C(=O)c1c(O)c3c(c(O)c1C2=O)C[C@@](O)(C(=O)CO)C[C@@H]3O[C@H]1C[C@H](N)[C@H](O)[C@H](C)O1 [DOX, doxorubicin, reference compound]",p-JNK expression level compared with Con group,"[1]; DOX model group, DOX 24 h",significantly higher
same,Cleaved-Caspase-3 expression level compared with Con group,"[2]; DOX model group, DOX 24 h",significantly higher
"O=C(/C=C/c1ccc(O)cc1)NCCCCO [compound I, 4-[(E)-p-coumaroylamino]butan-1-ol]",p-JNK expression level compared with DOX model group,[1]; high-dose 40 μM,a highly significant difference
same,p-JNK expression level compared with DOX model group,[1]; low-dose 10 μM,no statistically significant difference
same,p-JNK expression level compared with DOX model group,[1]; moderate-dose 20 μM,a highly significant difference
same,toxic effect on H9c2 cell viability compared with Con group,[3]; 80 μM,significantly different compared with the Con group
same,toxic effect on H9c2 cell viability compared with Con group,[3]; 0.1-40 μM,not statistically different from the Con group
same,difference from DOX model group in DOX-induced cardiomyocyte toxicity,[4]; 5-80 μM,a significant difference or a highly significant difference
same,inhibition of DOX-induced cardiomyocyte toxicity compared with DOX model group,[4]; different concentration ranges,all exhibit inhibition of DOX-induced cardiomyocyte toxicity
same,Cleaved-Caspase-3 expression level compared with DOX model group,"[2]; 10 μM, 20 μM and 40 μM, 1 h incubation, then DOX 24 h",able to inhibit the elevation of Cleaved-Caspase-3 level induced by DOX to varying degrees
